Read-outs that look alike come from different tables or passages of the source. Blank lines part the entries; values can stand above or below the compound they belong to.
Key:
BCRP [1] = target: T1, BCRP (Homo sapiens, UniProt Q9UNQ0)
T1 sequence (Q9UNQ0 1-655): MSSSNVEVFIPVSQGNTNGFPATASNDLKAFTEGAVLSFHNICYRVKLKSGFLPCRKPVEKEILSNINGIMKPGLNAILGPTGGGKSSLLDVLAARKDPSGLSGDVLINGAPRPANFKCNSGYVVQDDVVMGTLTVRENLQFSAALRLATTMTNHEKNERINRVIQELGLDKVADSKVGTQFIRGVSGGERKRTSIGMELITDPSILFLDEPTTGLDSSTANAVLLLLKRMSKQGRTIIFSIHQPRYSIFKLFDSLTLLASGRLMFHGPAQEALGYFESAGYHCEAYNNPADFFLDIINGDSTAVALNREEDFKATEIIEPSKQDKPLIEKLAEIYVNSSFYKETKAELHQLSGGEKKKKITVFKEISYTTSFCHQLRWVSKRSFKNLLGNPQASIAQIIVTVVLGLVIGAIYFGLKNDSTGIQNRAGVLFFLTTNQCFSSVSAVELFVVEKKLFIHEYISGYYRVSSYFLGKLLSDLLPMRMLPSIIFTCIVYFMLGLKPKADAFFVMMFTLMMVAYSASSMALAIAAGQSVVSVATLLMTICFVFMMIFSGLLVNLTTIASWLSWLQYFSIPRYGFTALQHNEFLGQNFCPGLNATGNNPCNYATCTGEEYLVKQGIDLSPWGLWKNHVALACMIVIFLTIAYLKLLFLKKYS
Method: (§2) The activity of ABC transporters was assessed by measuring the apical-to-basolateral (AB) and basolateral-to-apical (BA) fluxes of specific substrates. To this aim, cell monolayers were washed twice in HBSS and equilibrated for 30 min in the same solution (pH 7.4, 37 °C). […] Aliquots of the solution in the receiver chamber were collected after 0 min, 30 min, 60 min and 120 min and replaced with fresh HBSS. The fluxes were determined by measuring fluorescence with an EnSpire® Multimode Plate Reader (Perkin Elmer), or radioactivity with MicroBeta^2 liquid scintillation spectrometer. Data obtained were employed to calculate the apparent permeability coefficient (Papp). The integrity of cell monolayers, verified by measuring TEER before and after the experiment, was not modified by the experimental procedures.
(§3) Efflux ratio (ER) was calculated as the ratio between Papp measured for BA and AB fluxes, while uptake ratio (UR) was calculated as the ratio between Papp measured for AB and BA fluxes.

BCRP [2] = target: T1, BCRP; test: BCRP activity, bidirectional transport of 3H-mitoxantrone in EpiAirway; details: 21 d at ALI, 10 µM Febuxostat
Method: as §2, §3

MDR1 [3] = test: MDR1 activity, bidirectional transport of Rhodamine 123 in EpiAirway; type: in vitro ADME, human
MDR1 (P-glycoprotein) = target: T2, MDR1 (P-glycoprotein) (Homo sapiens, UniProt P08183); test: MDR1 activity, bidirectional transport of Rhodamine 123 in Calu-3; type: in vitro ADME; details: human, Calu-3, 21 d at ALI
T2 construct: MDR1 in Calu-3 cultures is expressed and operative on the apical membrane of the cells only after 21 d at ALI; endogenous in cells; host or cells: Calu-3 cells at air-liquid interface, 8 d or 21 d
Method: as §2, §3

MDR1 [4] = target: T3, MDR1 (Homo sapiens, UniProt P08183); test: as above; type: in vitro ADME; details: 1 µM Rhodamine 123
T3 construct: MDR1 in Calu-3 cultures is expressed and operative on the apical membrane of the cells only after 21 d at ALI; endogenous in cells; host or cells: Calu-3 cells at air-liquid interface, 8 d or 21 d
Method: as §2, §3

Calu-3 cells = test: Paracellular and transcellular permeability (apical-to-basolateral Papp) in Calu-3; type: in vitro ADME, human; details: Calu-3, after 21 d at ALI, AB flux, 20 µM 14C-mannitol
Method: (§1) In parallel, the paracellular and transcellular permeability of cultures to solutes was assessed by monitoring the apical-to-basolateral fluxes of ^14C-mannitol and ^3H-propranolol, respectively. In detail, cell monolayers were washed and incubated for 30 min in Hank’s Balanced Salt Solution (HBSS, pH 7.4, 37 °C); HBSS containing ^14C-mannitol (1 µCi/mL, corresponding to 20 µM) or ^3H-propranolol (3 µCi/mL; 10 µM) was then added to the apical side (donor chamber) of the monolayers.

EpiAirway™ = type: in vitro ADME, human
Method: as §1

T3 sequence (P08183 whole entry): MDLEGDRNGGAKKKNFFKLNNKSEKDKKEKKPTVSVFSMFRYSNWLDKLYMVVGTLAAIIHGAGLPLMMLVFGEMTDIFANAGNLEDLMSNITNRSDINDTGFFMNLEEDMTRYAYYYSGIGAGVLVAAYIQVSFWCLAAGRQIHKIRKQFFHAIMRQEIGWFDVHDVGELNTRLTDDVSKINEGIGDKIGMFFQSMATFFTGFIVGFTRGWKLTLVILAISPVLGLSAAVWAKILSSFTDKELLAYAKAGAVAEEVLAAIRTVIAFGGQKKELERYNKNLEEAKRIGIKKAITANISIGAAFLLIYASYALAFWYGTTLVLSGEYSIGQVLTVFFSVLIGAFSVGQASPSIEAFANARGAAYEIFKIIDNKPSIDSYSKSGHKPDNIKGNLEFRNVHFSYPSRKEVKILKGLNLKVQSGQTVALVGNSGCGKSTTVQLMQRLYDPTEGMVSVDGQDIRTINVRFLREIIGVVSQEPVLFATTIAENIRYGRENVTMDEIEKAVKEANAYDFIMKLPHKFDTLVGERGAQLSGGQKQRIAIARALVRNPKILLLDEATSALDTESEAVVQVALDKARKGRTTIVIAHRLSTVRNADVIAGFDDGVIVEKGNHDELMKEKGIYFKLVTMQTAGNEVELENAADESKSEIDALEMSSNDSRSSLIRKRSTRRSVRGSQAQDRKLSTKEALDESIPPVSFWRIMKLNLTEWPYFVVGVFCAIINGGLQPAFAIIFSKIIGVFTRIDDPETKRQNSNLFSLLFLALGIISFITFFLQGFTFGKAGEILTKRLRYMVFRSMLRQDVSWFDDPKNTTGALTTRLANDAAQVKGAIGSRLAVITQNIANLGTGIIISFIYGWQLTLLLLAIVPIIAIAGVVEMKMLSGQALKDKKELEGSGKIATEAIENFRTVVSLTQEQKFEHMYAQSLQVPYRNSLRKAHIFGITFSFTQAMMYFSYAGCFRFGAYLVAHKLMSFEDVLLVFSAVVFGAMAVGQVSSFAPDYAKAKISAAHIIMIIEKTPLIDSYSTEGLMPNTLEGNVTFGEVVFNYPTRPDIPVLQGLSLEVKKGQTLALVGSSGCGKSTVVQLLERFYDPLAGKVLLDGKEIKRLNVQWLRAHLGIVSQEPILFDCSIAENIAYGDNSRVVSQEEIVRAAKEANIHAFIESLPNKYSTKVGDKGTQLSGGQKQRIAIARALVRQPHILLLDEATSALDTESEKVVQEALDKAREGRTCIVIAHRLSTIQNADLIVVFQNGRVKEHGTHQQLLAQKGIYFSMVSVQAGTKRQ
T2 sequence (P08183 whole entry): as above

Structure (SMILES): Cc1nc(-c2ccc(OCC(C)C)c(C#N)c2)sc1C(=O)O [Febuxostat]
effect of inhibitor on Papp for AB flux of 3H-mitoxantrone (BCRP [1]): modest but significant decrease | effect of inhibitor on BA flux of 3H-mitoxantrone (BCRP [2]): remained almost unaffected | effect of inhibitor on uptake ratio (UR) of 3H-mitoxantrone (BCRP [2]): slight decrease

Structure (SMILES): C/C=C/C[C@@H](C)C(=O)[C@H]1C(=O)N[C@@H](C(C)C)C(=O)N(C)CC(=O)N(C)[C@@H](CC(C)C)C(=O)N[C@@H](C(C)C)C(=O)N(C)[C@@H](CC(C)C)C(=O)N[C@@H](C)C(=O)N[C@H](C)C(=O)N(C)[C@@H](CC(C)C)C(=O)N(C)[C@@H](CC(C)C)C(=O)N(C)[C@@H](C(C)C)C(=O)N1C [PSC833]
effect of inhibitor on Rhodamine 123 fluxes (MDR1 [3]; 8 d and 21 d at ALI, 10 µM PSC833): lack of inhibition

AB vs BA fluxes (MDR1 [3]; 8 d and 21 d at ALI, 1 µM Rhodamine 123): no differences | values of Papp and ER (MDR1 [3]; Rhodamine 123 fluxes): very low | efflux ratio at 120 min, 1 µM (MDR1 (P-glycoprotein); pH 7.4, probe Rhodamine 123, with PSC833 10 µM, 1 µM Rhodamine 123, + 10 µM PSC833, read-out: efflux ratio (ER) in the presence of the inhibitor): 2.8 | efflux ratio at 120 min, 1 µM (MDR1 (P-glycoprotein); pH 7.4, probe Rhodamine 123, 1 µM Rhodamine 123, control (no inhibitor), read-out: efflux ratio (ER)): 7 | Papp for AB vs BA fluxes (MDR1 [4]; Calu-3, 8 d at ALI): comparable | Papp for BA transport vs AB flux (MDR1 [4]; Calu-3, 21 d at ALI): hugely higher than that of AB flux
Structure (SMILES): COC(=O)c1ccccc1-c1c2ccc(=N)cc-2oc2cc(N)ccc12 [Rhodamine 123]

Papp for mannitol, 21 d vs 8 d of culture (Calu-3 cells): decreased | mannitol permeability (Papp), 8 d vs 21 d of culture (EpiAirway™): no difference
Structure (SMILES): OC[C@@H](O)[C@@H](O)[C@H](O)[C@H](O)CO [mannitol]

Structure (SMILES): CC(C)NCC(O)COc1cccc2ccccc12 (stereo not shown) [propranolol]
propranolol permeability (Papp), EpiAirway vs Calu-3 (EpiAirway™; human, 120 min, 10 µM, pH 7.4): slightly higher than that of Calu-3 cells

From article PMC7247561, “Characterization of ABC Transporters in EpiAirway™, a Cellular Model of Normal Human Bronchial Epithelium” (International Journal of Molecular Sciences, 2020)
